The results in this text go back to patent US6835382B2, “Ii peptide therapeutics to enhance antigen presentation” (University of Massachusetts, priority 1996, dated 2004).

For assay [1], the system named is HLA-DR1 molecules. Briefly: exchange of biotinylated hMBP(90-102) into antigenic peptide-loaded HLA-DR1 (assay III). In kind it is binding, human. The note with it: Table 38; HLA-DR1 preloaded with unlabeled hMBP(90-102) 50 μM; exchange with biotin-labeled hMBP(90-102) 50 μM, 37° C., 1 h; fraction of positive control o.d.; no enhancement = 0.08.
Assay [2] has as its system HLA-DR1 molecules. Briefly: release of biotin-labeled hMBP(90-102) from HLA-DR1 in the presence of unlabeled hMBP (assay II). The note with it: for Relative Release, With unlabeled hMBP(90-102), 1 μM / Relative Release, With unlabeled hMBP(90-102), 64 μM: Table 37, unlabeled hMBP(90-102) 250 μM; for Relative Release, With unlabeled hMBP(90-102), 1 μM: AE101 series compound 1 μM; for Relative Release, With unlabeled hMBP(90-102), 64 μM: AE101 series compound 64 μM. In kind it is binding, human.

For assay [3], the target named is T1, murine E^d MHC class II allele (Mus musculus, UniProt P01904+P01915).
T1 sequence (P01904 26-255): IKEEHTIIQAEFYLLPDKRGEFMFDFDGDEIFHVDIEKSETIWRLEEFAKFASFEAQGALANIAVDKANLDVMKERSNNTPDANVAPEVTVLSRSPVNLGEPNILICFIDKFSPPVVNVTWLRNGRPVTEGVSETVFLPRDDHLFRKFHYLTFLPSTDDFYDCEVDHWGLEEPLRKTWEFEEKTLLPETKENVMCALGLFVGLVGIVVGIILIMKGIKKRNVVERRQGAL
T1 sequence (P01915 27-264 limits assumed): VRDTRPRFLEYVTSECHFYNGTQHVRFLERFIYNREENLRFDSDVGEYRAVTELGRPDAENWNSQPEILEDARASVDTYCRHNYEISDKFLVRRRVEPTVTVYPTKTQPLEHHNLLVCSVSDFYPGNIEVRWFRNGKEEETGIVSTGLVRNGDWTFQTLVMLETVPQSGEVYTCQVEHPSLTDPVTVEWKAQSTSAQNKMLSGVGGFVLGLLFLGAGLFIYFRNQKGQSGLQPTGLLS
Briefly: AE101 series peptide prepulse assay, E^d allele. In kind it is cell-based. The note with it: Table 35; AE101 series peptide prepulse 64 μM; antigenic peptide 0.3 μM; supernatant dilution 1:4. The protocol: (§1) Table 35: Activities of multiple substitution analogs of AE235, targeting the E^k and E^d allele, in an AE101 series peptide prepulse assay. In this assay the concentration of AE101 series peptides used during the prepulse was 64 μM. The concentrations of antigenic peptides were 0.3 μM for Ed and 0.4 μM for E^k. The supernatant dilutions taken into the HT-2 cell assay was 1:4 for E and 1:2 for E^k. The AE381 peptide is a head-to-tail cyclization: the amino terminal amino group is coupled through an amide linkage to the carboxyl terminal group. The AE 382 peptide is a side-to-tail cyclization: the epsilon amino group of Lys^4 is coupled through an amide linkage to the carboxyl terminal group.
(§2) AE101 series peptide prepulse assays were carried out in the E^d and E^k systems as described for simultaneous competition assays with the following modifications. Fixed APC were first incubated for 6 h at 1×10^6DMEM-5% FCS with 64 μM of each AE101 series peptide or with PBS. The APC were then washed four times with ten volumes of DMEM-5% FCS, and were cocultured with T hybridoma cells and the indicated submaximal doses of antigenic peptides used in the simultaneous competition assays. The baseline T cell response was measured by culturing T hybridoma cells with antigenic peptide and PBS-pretreated APC.

The target in assay [4] is T2, HLA-DR1 molecules (Homo sapiens, UniProt P01903+P01911, A100R/D57E/F55L/F60I/F76Y/I96L/L162R/M171V/P40L/Q125E/R42F/V115G/Y59C).
T2 construct: The HLA-DR alpha gene was truncated after Asn^192 to remove transmembranal and cytoplasmic regions from the protein product; A gene coding for the HLA-DR1 beta chain was truncated after position Lys^198, again to delete the transmembranal region; made in house; host or cells: insect cell line printed as HS / H5 (Invitrogen), co-infected with two baculoviruses; concentrated culture supernatant captured on 12CA5 antibody
Briefly: binding of biotin-labeled hMBP(90-102) to "empty" HLA-DR1 (assay IV). The settings on record: Table 39; AE101 series compound 64 μM; biotin-labeled hMBP(90-102) 50 μM, 37° C., 1 h; no enhancement = 1.

In assay [5] the test system is HLA-DR1 molecules. Briefly: release of biotin-labeled hMBP(90-102) from HLA-DR1 without unlabeled antigenic peptide (assay I). The class given is binding, human. The settings on record: for Relative Release: Table 36, fraction of o.d. of positive control (PBS only = 1.0; negative control = 0.0); for Relative Release / Relative Release, Without unlabeled hMBP(90-102), 64 μM: AE101 series compound 64 μM; for Relative Release, Without unlabeled hMBP(90-102), 1 μM / Relative Release, Without unlabeled hMBP(90-102), 64 μM: Table 37, no unlabeled hMBP(90-102); for Relative Release, Without unlabeled hMBP(90-102), 1 μM: AE101 series compound 1 μM.

The subject of assay [6] is murine E^k MHC class II allele. The experiment in a line: AE101 series peptide prepulse assay, E^k allele. In kind it is cell-based. The note with it: Table 35; AE101 series peptide prepulse 64 μM; antigenic peptide 0.4 μM; supernatant dilution 1:2. The procedure:
as §1, §2

Non-standard residues stand in square brackets, D forms with d.

Take “Ac-LRMK Y PK-NH2 (Ac-LRMKYPK-NH2; not fully specified; printed as Ac-LRMK Y PK-NH2) [AE235]”: the “Relative Binding” value with HLA-DR1 molecules [1] is reported as 0.15. In the assay on HLA-DR1 molecules [2], the “Relative Release, With unlabeled hMBP(90-102), 1 μM” value stood at 0.48 and the “Relative Release, With unlabeled hMBP(90-102), 64 μM” value is on record as 0.6. In addition, in assay [3], the “T cell response relative to baseline with PBS-pretreated APC (NONE = 1.0), E^d” value (shortened to “T cell response relative to baseline … E^d”) turned out to be 15.6. In addition, the “Relative Enhancement” value with HLA-DR1 molecules [4] is 0.61. In addition, the “release of biotin-labeled hMBP(90-102) from HLA-DR1 without second unlabeled antigenic peptide, in words” value in the assay on HLA-DR1 molecules [5] (Table 36 (compounds tested at 64 μM)) is on record as “did not release”. Further, in the assay with HLA-DR1 molecules [5], the “Relative Release” value is given as 0.79; the “Relative Release, Without unlabeled hMBP(90-102), 1 μM” value worked out at 1.05; the “Relative Release, Without unlabeled hMBP(90-102), 64 μM” value is on record as 0.81. The “T cell response relative to baseline with PBS-pretreated APC (NONE = 1.0), E^k” value (from here on “T cell response relative to baseline … E^k”) in assay [6] is given as 2.1.
On to “Ac-YRMKL hydrP KSAK-NH2 (Ac-YRMKL[hydrP]KSAK-NH2) [AE143]”, for which, in the assay with HLA-DR1 molecules [2], the “Relative Release, With unlabeled hMBP(90-102), 1 μM” value came to 0.35 and the “Relative Release, With unlabeled hMBP(90-102), 64 μM” value is recorded as 0.21. In addition, in the assay on HLA-DR1 molecules [5], the “Relative Release, Without unlabeled hMBP(90-102), 1 μM” value is 0.51 and the “Relative Release, Without unlabeled hMBP(90-102), 64 μM” value was 0.58.
Consider Ac-YRMK-NH2 [AE117], for which the “T cell response relative to baseline … E^d” value in assay [3] was found to be 4.4. The “T cell response relative to baseline … E^k” value in assay [6] was 2.3.
For YRMKLPKSAKPVSQMR [AE101], the “Relative Binding” value with HLA-DR1 molecules [1] is recorded as 0.31. The “Relative Enhancement” value with HLA-DR1 molecules [4] came out at 2.66. Also, the “release of hMBP(90-102) from HLA-DR1” value with HLA-DR1 molecules [5] (AE peptide at 125 nM, additional experiments) is on record as “completely release”. Moreover, the “release of biotin-labeled hMBP(90-102) (Relative Release)” value in the assay with HLA-DR1 molecules [5] (AE peptide at 1 μM without unlabeled hMBP(90-102)) amounted to 0.02. The “Relative Release” value in the assay on HLA-DR1 molecules [5] is reported as −0.33.
“Ac-LR L KLPK-NH2 (Ac-LRLKLPK-NH2; not fully specified; printed as Ac-LR L KLPK-NH2) [AE206]”: in the assay with HLA-DR1 molecules [1], the “Relative Binding” value is reported as −0.13. For the same substance, in the assay on HLA-DR1 molecules [2], the “Relative Release, With unlabeled hMBP(90-102), 1 μM” value is reported as 0.03 and the “Relative Release, With unlabeled hMBP(90-102), 64 μM” value was −0.29. In addition, in assay [3], the “T cell response relative to baseline … E^d” value was determined as 5.0. In addition, the “Relative Enhancement” value with HLA-DR1 molecules [4] came out at 2.57. Besides, in the assay on HLA-DR1 molecules [5], the “Relative Release, Without unlabeled hMBP(90-102), 1 μM” value is 0.58 and the “Relative Release, Without unlabeled hMBP(90-102), 64 μM” value stood at 0.08. Further, the “T cell response relative to baseline … E^k” value in assay [6] is recorded as 2.7.
On to “Ac-LRMK D PK-NH2 (Ac-LRMKDPK-NH2) [AE230]”, for which, in assay [3], the “T cell response relative to baseline … E^d” value was 0.8. The “T cell response relative to baseline … E^k” value in assay [6] was found to be 1.6.
With Ac-LRMKLPK-NH2 [AE114], the “release of antigenic peptide from HLA-DR1 in presence of second antigenic peptide, in words” value in the assay with HLA-DR1 molecules [2] (excess second antigenic peptide) was “can catalyze the release of antigenic peptide from the antigenic peptide binding site only in the presence of excess quantities of a second antigenic peptide”. In addition, the “T cell response relative to baseline … E^d” value in assay [3] is 6.0. The “T cell response relative to baseline … E^k” value in assay [6] was found to be 2.0.
